One assay deals with T1, human plasma kallikrein (Homo sapiens, UniProt P03952).
T1 construct: purchased Kordia
The assay is described as follows: Determination of the plasma kallikrein activity (fluorogenic peptide substrate, AMC cleavage). The settings on record: plasma kallikrein from Kordia 0.6 nM; substrate H-Pro-Phe-Arg-AMC 10 μM; 30 min at 22° C.; in some cases averages from multiple determinations. The class given is biochemical. In outline:
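Kallikrein cleavage of H-Pro-Phe-Arg-AMC was followed by AMC fluorescence (ex 360, em 460) after 15 min enzyme–compound preincubation. IC50 was derived versus DMSO controls over final concentrations of 50 μM to 0.00013 μM.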

Another assay addresses T2, human factor XIa (Homo sapiens, UniProt P03951).
T2 construct: purchased Kordia
The assay is described as follows: Measurement of FXIa inhibition (fluorogenic peptide substrate, AMC cleavage). In kind it is biochemical. The settings on record: factor XIa from Kordia 0.45 nM; substrate Boc-Glu(OBzl)-Ala-Arg-AMC 10 μM; 30 min at 22° C.; in some cases averages from multiple determinations.

Consider 23 compounds from patent US20180250280A1 (BAYER PHARMA AKTIENGESELLSCHAFT, priority 2015, published 2018).

T1 sequence (P03952 391-638 limits assumed): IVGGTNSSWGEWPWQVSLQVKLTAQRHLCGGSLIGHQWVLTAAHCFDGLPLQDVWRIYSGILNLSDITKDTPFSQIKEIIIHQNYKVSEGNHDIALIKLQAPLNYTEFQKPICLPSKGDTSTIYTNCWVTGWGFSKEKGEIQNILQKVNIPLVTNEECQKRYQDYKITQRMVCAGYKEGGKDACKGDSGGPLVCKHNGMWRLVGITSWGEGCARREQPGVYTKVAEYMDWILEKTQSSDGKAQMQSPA
T1 sequence (P03952 20-390 partner limits assumed): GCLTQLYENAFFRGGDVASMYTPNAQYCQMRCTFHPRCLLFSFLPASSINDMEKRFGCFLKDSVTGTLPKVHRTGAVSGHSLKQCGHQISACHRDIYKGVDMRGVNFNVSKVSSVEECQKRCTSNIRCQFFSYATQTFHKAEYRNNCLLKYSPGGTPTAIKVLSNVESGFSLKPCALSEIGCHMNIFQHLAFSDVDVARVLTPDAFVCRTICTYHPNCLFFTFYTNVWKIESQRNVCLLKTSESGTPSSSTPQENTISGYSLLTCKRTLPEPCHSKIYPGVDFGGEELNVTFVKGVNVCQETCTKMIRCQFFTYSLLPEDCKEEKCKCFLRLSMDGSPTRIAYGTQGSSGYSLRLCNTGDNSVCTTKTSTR
T2 sequence (P03951 388-625 limits assumed): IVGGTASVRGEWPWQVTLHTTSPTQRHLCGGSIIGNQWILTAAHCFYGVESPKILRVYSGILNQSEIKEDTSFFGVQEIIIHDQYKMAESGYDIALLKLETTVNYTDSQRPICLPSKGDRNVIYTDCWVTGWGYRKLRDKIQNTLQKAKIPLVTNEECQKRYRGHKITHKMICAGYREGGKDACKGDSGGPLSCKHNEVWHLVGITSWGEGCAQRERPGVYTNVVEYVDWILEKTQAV
T2 sequence (P03951 19-387 partner limits assumed): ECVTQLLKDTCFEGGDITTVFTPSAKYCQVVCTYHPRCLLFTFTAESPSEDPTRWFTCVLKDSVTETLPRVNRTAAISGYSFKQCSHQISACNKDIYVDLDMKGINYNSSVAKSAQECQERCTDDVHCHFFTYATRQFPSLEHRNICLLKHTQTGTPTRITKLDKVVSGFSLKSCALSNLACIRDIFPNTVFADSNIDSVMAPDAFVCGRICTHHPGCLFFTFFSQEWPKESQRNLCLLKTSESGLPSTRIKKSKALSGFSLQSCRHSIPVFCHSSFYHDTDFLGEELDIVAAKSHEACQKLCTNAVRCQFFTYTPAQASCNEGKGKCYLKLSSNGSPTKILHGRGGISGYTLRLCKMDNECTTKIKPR

Broadly, the IC50 is the concentration at which inhibition is half-maximal. Read a high IC50 as weaker potency in that assay. For the compound `CNC(=O)c1ccc(NC(=O)C(CCOC2(C)CCC2)n2cc(OC)c(-c3cc(Cl)ccc3OCC(F)(F)F)cc2=O)cn1` (racemic) [Example 57, 5-[[2-[4-[5-Chloro-2-(2,2,2-trifluoroethoxy)phenyl]-5-methoxy-2-oxo-1-pyridyl]-4-(1-methylcyclobutoxy)butanoyl]amino]-N-methylpyridine-2-carboxamide], the half-maximal inhibitory concentration (IC50) against human plasma kallikrein was 0.054 µM; against human factor XIa, 0.014 µM.
The matching figures for `COc1cn(C(CC2COCCO2)C(=O)Nc2ccc(C(N)=O)c(F)c2)c(=O)cc1-c1cc(Cl)ccc1OCCF` (stereo not shown) [Example 47, 4-{[2-{4-[5-Chloro-2-(2-fluoroethoxy)phenyl]-5-methoxy-2-oxopyridin-1(2H)-yl}-3-(1,4-dioxan-2-yl)propanoyl]amino}-2-fluorobenzamide]: 0.31 µM and 0.029 µM.
The matching figures for `COc1cn(C(CCOC2(C)CCC2)C(=O)Nc2ccc3nn(C)cc3c2)c(=O)cc1-c1cc(Cl)ccc1OCC(F)(F)F` (racemic) [Example 58, 2-[4-[5-Chloro-2-(2,2,2-trifluoroethoxy)phenyl]-5-methoxy-2-oxo-1-pyridyl]-4-(1-methylcyclobutoxy)-N-(2-methylindazol-5-yl)butanamide]: 0.057 µM and 0.014 µM.
The matching figures for `CNC(=O)c1ccc(NC(=O)C(CC2COCCO2)n2cc(OC)c(-c3cc(Cl)ccc3OCC(F)(F)F)cc2=O)cn1` (stereo not shown) [Example 19, 5-{[2-{4-[5-Chloro-2-(2,2,2-trifluoroethoxy)phenyl]-5-methoxy-2-oxopyridin-1(2H)-yl}-3-(1,4-dioxan-2-yl)propanoyl]amino}-N-methylpyridine-2-carboxamide]: 0.038 µM and 0.0034 µM.
On to `COc1cn(C(C[C@H]2CCCCO2)C(=O)Nc2ccc(C(N)=O)c(F)c2)c(=O)cc1-c1cc(Cl)ccc1OCC(F)(F)F` (stereo partly drawn) [Example 23, 4-[(2-{4-[5-Chloro-2-(2,2,2-trifluoroethoxy)phenyl]-5-methoxy-2-oxopyridin-1(2H)-yl}-3-[(2R)-tetrahydro-2H-pyran-2-yl]propanoyl)amino]-2-fluorobenzamide], for which the IC50 was 0.34 µM against human plasma kallikrein and 0.034 µM on human factor XIa.
The matching figures for `COc1cn(C(CCOC(F)(F)F)C(=O)Nc2ccc(C(N)=O)c(F)c2)c(=O)cc1-c1cc(Cl)ccc1OCC(F)(F)F` (racemic) [Example 42, 4-{[2-{4-[5-Chloro-2-(2,2,2-trifluoroethoxy)phenyl]-5-methoxy-2-oxopyridin-1(2H)-yl}-4-(trifluoromethoxy)butanoyl]amino}-2-fluorobenzamide]: 0.19 µM and 0.029 µM.
Take `COc1cn(C(CCOC(C)(C)C)C(=O)Nc2ccc(C(N)=O)c(F)c2)c(=O)cc1-c1cc(Cl)ccc1OCC(F)(F)F` (racemic) [Example 10, 4-[(4-tert-Butoxy-2-{4-[5-chloro-2-(2,2,2-trifluoroethoxy)phenyl]-5-methoxy-2-oxopyridin-1(2H)-yl}butanoyl)amino]-2-fluorobenzamide]: the results for the IC50 on human plasma kallikrein and at human factor XIa were 0.077 µM and 0.015 µM, respectively.
On to `COc1cn(C(C[C@H]2CCCCO2)C(=O)Nc2ccc3nn(C)cc3c2)c(=O)cc1-c1cc(Cl)ccc1OCC(F)(F)F` (stereo partly drawn) [Example 21, 2-{4-[5-Chloro-2-(2,2,2-trifluoroethoxy)phenyl]-5-methoxy-2-oxopyridin-1(2H)-yl}-N-(2-methyl-2H-indazol-5-yl)-3-[(2R)-tetrahydro-2H-pyran-2-yl]propanamide], for which the values for the IC50 against human plasma kallikrein and on human factor XIa were 0.15 µM and 0.016 µM, respectively.
The matching figures for `COc1cn(C(CC2COCCO2)C(=O)Nc2ccc3nn(C)cc3c2)c(=O)cc1-c1cc(Cl)ccc1OCC(F)F` (stereo not shown) [Example 33, 2-{4-[5-Chloro-2-(2,2-difluoroethoxy)phenyl]-5-methoxy-2-oxopyridin-1(2H)-yl}-3-(1,4-dioxan-2-yl)-N-(2-methyl-2H-indazol-5-yl)propanamide]: 0.066 µM and 0.0058 µM.
The matching figures for `COc1cn(C(CCOC2(C)CCC2)C(=O)Nc2ccc(C(N)=O)nc2)c(=O)cc1-c1cc(Cl)ccc1OCC(F)(F)F` (racemic) [Example 60, 5-[[2-[4-[5-Chloro-2-(2,2,2-trifluoroethoxy)phenyl]-5-methoxy-2-oxo-1-pyridyl]-4-(1-methylcyclobutoxy)butanoyl]amino]pyridine-2-carboxamide]: 0.084 µM and 0.017 µM.
Regarding `COc1cn(C(C[C@@H]2CCCCO2)C(=O)Nc2ccc3nc(C(=O)O)cn3c2)c(=O)cc1-c1cc(Cl)ccc1OCC(F)(F)F` (stereo partly shown) [Example 77], the IC50 was determined as 0.023 µM at human plasma kallikrein and 0.0022 µM against human factor XIa.
The matching figures for `COc1cc(NC(=O)[C@H](CCOC(C)(C)C)n2cc(OC)c(-c3cc(Cl)ccc3OCC(F)(F)F)cc2=O)ccc1C(=O)O` (single isomer, unassigned) [Example 70, 4-{[4-tert-Butoxy-2-{4-[5-chloro-2-(2,2,2-trifluoroethoxy)phenyl]-5-methoxy-2-oxopyridin-1(2H)-yl}butanoyl]amino}-2-methoxybenzoic acid]: 0.058 µM and 0.0013 µM.
As for `COc1cn(C(Cc2ccn(C)n2)C(=O)Nc2ccc3nn(C)cc3c2)c(=O)cc1-c1cc(Cl)ccc1OCC(F)(F)F` (racemic) [Example 14, 2-{4-[5-Chloro-2-(2,2,2-trifluoroethoxy)phenyl]-5-methoxy-2-oxopyridin-1(2H)-yl}-N-(2-methyl-2H-indazol-5-yl)-3-(1-methyl-1H-pyrazol-3-yl)propanamide], the IC50 was 0.045 µM on human plasma kallikrein and 0.0093 µM against human factor XIa.
As for `COc1cn(C(CCOC(C)C)C(=O)Nc2ccc3nn(C)cc3c2)c(=O)cc1-c1cc(Cl)ccc1OCC(F)(F)F` (racemic) [Example 39, 2-{4-[5-Chloro-2-(2,2,2-trifluoroethoxy)phenyl]-5-methoxy-2-oxopyridin-1(2H)-yl}-4-isopropoxy-N-(2-methyl-2H-indazol-5-yl)butanamide], the IC50 on human plasma kallikrein amounted to 0.056 µM; at human factor XIa, 0.016 µM.
Regarding `COc1cn(C(Cc2ccn(C)n2)C(=O)Nc2ccc(C(=O)O)cc2)c(=O)cc1-c1cc(Cl)ccc1OCC(F)(F)F` (single isomer, unassigned) [Example 43, 4-{[2-{4-[5-Chloro-2-(2,2,2-trifluoroethoxy)phenyl]-5-methoxy-2-oxopyridin-1(2H)-yl}-3-(1-methyl-1H-pyrazol-3-yl)propanoyl]amino}benzoic acid], the IC50 at human plasma kallikrein came out at 0.0094 µM; on human factor XIa, 0.00096 µM.
With `CCCC(C(=O)Nc1ccc(C(=O)NC)nc1)n1cc(OC)c(-c2cc(Cl)ccc2OCC(F)(F)F)cc1=O` (racemic) [Example 66, 5-{[2-{4-[5-Chloro-2-(2,2,2-trifluoroethoxy)phenyl]-5-methoxy-2-oxopyridin-1(2H)-yl}pentanoyl]amino}-N-methylpyridine-2-carboxamide], the IC50 on human plasma kallikrein was 0.18 µM; against human factor XIa, 0.036 µM.
Regarding `COc1cn(C(CCOC2(C)CCC2)C(=O)Nc2ccc(C(=O)O)cc2)c(=O)cc1-c1cc(Cl)ccc1OCC(F)(F)F` (racemic) [Example 55, 4-[(2-{4-[5-Chloro-2-(2,2,2-trifluoroethoxy)phenyl]-5-methoxy-2-oxopyridin-1(2H)-yl}-4-[(1-methylcyclobutyl)oxy]butanoyl)amino]benzoic acid], the results for the IC50 on human plasma kallikrein and against human factor XIa were 0.032 µM and 0.0018 µM, respectively.
As for `COc1cn(C(C[C@@H]2CCCCO2)C(=O)Nc2ccc3nn(C)cc3c2)c(=O)cc1-c1cc(Cl)ccc1OCC(F)(F)F` (stereo partly drawn) [Example 51, 2-{4-[5-Chloro-2-(2,2,2-trifluoroethoxy)phenyl]-5-methoxy-2-oxopyridin-1(2H)-yl}-N-(2-methyl-2H-indazol-5-yl)-3-[(2S)-tetrahydro-2H-pyran-2-yl]propanamide], the IC50 against human plasma kallikrein is 0.065 µM; on human factor XIa, 0.006 µM.
Regarding `COc1cn(C(C[C@H](C)OC)C(=O)Nc2ccc(C(=O)O)cc2)c(=O)cc1-c1cc(Cl)ccc1OCC(F)(F)F` (mixture of isomers) [Example 35, 4-{[(4S)-2-{4-[5-Chloro-2-(2,2,2-trifluoroethoxy)phenyl]-5-methoxy-2-oxopyridin-1(2H)-yl}-4-methoxypentanoyl]amino}benzoic acid], the half-inhibitory concentration (IC50) came to 0.13 µM at human plasma kallikrein and 0.0024 µM against human factor XIa.
The matching figures for `COc1cn(C(C[C@@H]2CCCCO2)C(=O)Nc2ccc(C(=O)O)cc2)c(=O)cc1-c1cc(Cl)ccc1OCC(F)(F)F` (stereo partly drawn) [Example 49, 4-[(2-{4-[5-Chloro-2-(2,2,2-trifluoroethoxy)phenyl]-5-methoxy-2-oxopyridin-1(2H)-yl}-3-[(2S)-tetrahydro-2H-pyran-2-yl]propanoyl)amino]benzoic acid]: 0.033 µM and 0.0009 µM.
`COc1cn(C(CCOC(C)(C)C)C(=O)Nc2ccc3nn(C)cc3c2)c(=O)cc1-c1cc(Cl)ccc1OCC(F)F` (racemic) [Example 28, 4-tert-Butoxy-2-{4-[5-chloro-2-(2,2-difluoroethoxy)phenyl]-5-methoxy-2-oxopyridin-1(2H)-yl}-N-(2-methyl-2H-indazol-5-yl)butanamide]: the IC50 at human plasma kallikrein is 0.12 µM; at human factor XIa, 0.028 µM.
The matching figures for `CNC(=O)c1ccc(NC(=O)C(Cc2ccn(C)n2)n2cc(OC)c(-c3cc(Cl)ccc3OCC(F)(F)F)cc2=O)cn1` (racemic) [Example 15, 5-{[2-{4-[5-Chloro-2-(2,2,2-trifluoroethoxy)phenyl]-5-methoxy-2-oxopyridin-1(2H)-yl}-3-(1-methyl-1H-pyrazol-3-yl)propanoyl]amino}-N-methylpyridine-2-carboxamide]: 0.035 µM and 0.0064 µM.
The matching figures for `COc1cn(C(CCOC(C)(C)C)C(=O)Nc2ccc(C(N)=O)nc2)c(=O)cc1-c1cc(Cl)ccc1OCC(F)(F)F` (racemic) [Example 11, 5-[(4-tert-Butoxy-2-{4-[5-chloro-2-(2,2,2-trifluoroethoxy)phenyl]-5-methoxy-2-oxopyridin-1(2H)-yl}butanoyl)amino]pyridine-2-carboxamide]: 0.087 µM and 0.018 µM.
